Measurements published in ChEMBL document CHEMBL1201862, “PubChem BioAssay data set” (2004).
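Protocol summary: plate cells (96-well), add compound at 5 concentrations, incubate 48 h, interpolate endpoints linearly. GI50 = concentration required for 50% inhibition of growth.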 Calls of active or inactive are those of the source. Rule as the data show it: active = GI50 up to about 1.1 µM and inactive = higher.

Columns and labels:
Test in all cases: DTP human tumour cell line panel, 48 h
786-0 = system: 786-0
A498 = system: A498
A549 = system: A549
ACHN = system: ACHN
BT-549 = system: BT-549
CAKI-1 = system: CAKI-1
COLO 205 = system: COLO 205
DU-145 = system: DU-145
EKVX = system: EKVX
HCC 2998 = system: HCC 2998
HCT-116 = system: HCT-116
HCT-15 = system: HCT-15
HL-60 = system: HL-60
HOP-62 = system: HOP-62
HOP-92 = system: HOP-92
HT-29 = system: HT-29
Hs-578T = system: Hs-578T
IGROV-1 = system: IGROV-1
K562 = system: K562
KM12 = system: KM12
M14 = system: M14
MCF7 = system: MCF7
MDA-MB-231 = system: MDA-MB-231
MDA-MB-435 = system: MDA-MB-435
MDA-N = system: MDA-N
MOLT-4 = system: MOLT-4
Malme-3M = system: Malme-3M
NCI-H226 = system: NCI-H226
NCI-H23 = system: NCI-H23
NCI-H460 = system: NCI-H460
NCI/ADR-RES = system: NCI/ADR-RES
OVCAR-3 = system: OVCAR-3
OVCAR-4 = system: OVCAR-4
OVCAR-5 = system: OVCAR-5
OVCAR-8 = system: OVCAR-8
PC-3 = system: PC-3
RPMI-8226 = system: RPMI-8226
SF-268 = system: SF-268
SF-295 = system: SF-295
SF-539 = system: SF-539
SK-MEL-28 = system: SK-MEL-28
SK-MEL-2 = system: SK-MEL-2
SK-OV-3 = system: SK-OV-3
SN12C = system: SN12C
SNB-19 = system: SNB-19
SNB-75 = system: SNB-75
SR = system: SR
SW-620 = system: SW-620
T47D = system: T47D
TK-10 = system: TK-10
U-251 = system: U-251
UO-31 = system: UO-31
CCRF-CEM = system: CCRF-CEM
LOX IMVI = system: LOX IMVI
SK-MEL-5 = system: SK-MEL-5
UACC-257 = system: UACC-257
UACC-62 = system: UACC-62

Cc1ccc(C2(O)CS/C(=N\C34CC5CC(CC(C5)C3)C4)N2C(P(=O)(O)O)P(=O)(O)O)cc1 (configuration not stated)
GI50 (786-0): > 100 µM (inactive)
GI50 (A498): 82.8 µM (inactive)
GI50 (A549): 76.7 µM (inactive)
GI50 (ACHN): > 100 µM (inactive)
GI50 (BT-549): > 100 µM (inactive)
GI50 (CAKI-1): > 100 µM (inactive)
GI50 (COLO 205): > 100 µM (inactive)
GI50 (DU-145): > 100 µM (inactive)
GI50 (EKVX): > 100 µM (inactive)
GI50 (HCC 2998): 68.1 µM (inactive)
GI50 (HCT-116): 37.1 µM (inactive)
GI50 (HCT-15): > 100 µM
GI50 (HL-60): 37.7 µM (inactive)
GI50 (HOP-62): 49.1 µM (inactive)
GI50 (HOP-92): > 100 µM (inactive)
GI50 (HT-29): > 100 µM (inactive)
GI50 (Hs-578T): 73.1 µM (inactive)
GI50 (IGROV-1): > 100 µM (inactive)
GI50 (K562): 42.7 µM (inactive)
GI50 (KM12): > 100 µM (inactive)
GI50 (M14): > 100 µM (inactive)
GI50 (MCF7): 65.2 µM (inactive)
GI50 (MDA-MB-231): 56.6 µM (inactive)
GI50 (MDA-MB-435): > 100 µM (inactive)
GI50 (MDA-N): 42 µM (inactive)
GI50 (MOLT-4): 37.9 µM (inactive)
GI50 (Malme-3M): 63.7 µM (inactive)
GI50 (NCI-H226): > 100 µM (inactive)
GI50 (NCI-H23): > 100 µM (inactive)
GI50 (NCI-H460): 41.3 µM (inactive)
GI50 (NCI/ADR-RES): 24.2 µM (inactive)
GI50 (OVCAR-3): > 100 µM (inactive)
GI50 (OVCAR-4): > 100 µM (inactive)
GI50 (OVCAR-5): 82.8 µM (inactive)
GI50 (OVCAR-8): 86.7 µM (inactive)
GI50 (PC-3): 79.3 µM (inactive)
GI50 (RPMI-8226): > 100 µM (inactive)
GI50 (SF-268): > 100 µM (inactive)
GI50 (SF-295): 44.4 µM (inactive)
GI50 (SF-539): > 100 µM (inactive)
GI50 (SK-MEL-28): > 100 µM (inactive)
GI50 (SK-MEL-2): 27.5 µM (inactive)
GI50 (SK-OV-3): 72.8 µM (inactive)
GI50 (SN12C): 89.3 µM (inactive)
GI50 (SNB-19): 82.2 µM (inactive)
GI50 (SNB-75): 38.6 µM (inactive)
GI50 (SR): 29.2 µM (inactive)
GI50 (SW-620): > 100 µM (inactive)
GI50 (T47D): 80.2 µM (inactive)
GI50 (TK-10): > 100 µM (inactive)
GI50 (U-251): 38.6 µM (inactive)
GI50 (UO-31): > 100 µM (inactive)

O=Cc1cc2c(cc1-c1c(C=O)ccc3c1OCO3)OCO2
GI50 (786-0): > 10 µM (inactive)
GI50 (A549): > 10 µM (inactive)
GI50 (ACHN): > 10 µM (inactive)
GI50 (BT-549): > 10 µM (inactive)
GI50 (CAKI-1): > 10 µM (inactive)
GI50 (CCRF-CEM): > 10 µM (inactive)
GI50 (COLO 205): > 10 µM (inactive)
GI50 (DU-145): > 10 µM (inactive)
GI50 (HCC 2998): > 10 µM (inactive)
GI50 (HCT-116): > 10 µM (inactive)
GI50 (HCT-15): > 10 µM
GI50 (HL-60): > 10 µM (inactive)
GI50 (HOP-62): > 10 µM (inactive)
GI50 (HOP-92): > 10 µM (inactive)
GI50 (HT-29): > 10 µM (inactive)
GI50 (Hs-578T): > 10 µM (inactive)
GI50 (IGROV-1): > 10 µM (inactive)
GI50 (K562): > 10 µM (inactive)
GI50 (KM12): > 10 µM (inactive)
GI50 (LOX IMVI): > 10 µM (inactive)
GI50 (M14): > 10 µM (inactive)
GI50 (MCF7): > 10 µM (inactive)
GI50 (MDA-MB-231): > 10 µM (inactive)
GI50 (MDA-MB-435): > 10 µM (inactive)
GI50 (MDA-N): > 10 µM (inactive)
GI50 (MOLT-4): > 10 µM (inactive)
GI50 (Malme-3M): > 10 µM (inactive)
GI50 (NCI-H23): > 10 µM (inactive)
GI50 (NCI/ADR-RES): > 10 µM (inactive)
GI50 (OVCAR-3): > 10 µM (inactive)
GI50 (OVCAR-4): > 10 µM (inactive)
GI50 (OVCAR-8): > 10 µM (inactive)
GI50 (PC-3): > 10 µM (inactive)
GI50 (RPMI-8226): > 10 µM (inactive)
GI50 (SF-268): > 10 µM (inactive)
GI50 (SF-295): > 10 µM (inactive)
GI50 (SF-539): > 10 µM (inactive)
GI50 (SK-MEL-28): > 10 µM (inactive)
GI50 (SK-MEL-5): > 10 µM (inactive)
GI50 (SK-OV-3): > 10 µM (inactive)
GI50 (SN12C): > 10 µM (inactive)
GI50 (SNB-19): > 10 µM (inactive)
GI50 (SNB-75): > 10 µM (inactive)
GI50 (SR): > 10 µM (inactive)
GI50 (SW-620): > 10 µM (inactive)
GI50 (T47D): > 10 µM (inactive)
GI50 (TK-10): > 10 µM (inactive)
GI50 (U-251): > 10 µM (inactive)
GI50 (UACC-257): > 10 µM (inactive)
GI50 (UACC-62): > 10 µM (inactive)
